This is an account of results in patent US20080220078A1, “Pharmaceutical Formulations” (Vectura Limited, priority 2004, published 2008).

Several values for one entry are separate records, joined by “and”; a condition that tells them apart may be missing. Equal entries are not always repeated.

What all share (type): physicochemical
Series [1] can be described thus: Density Measurements (poured and tapped density). On the procedure: Approximately 5 g of material was placed in a measuring cylinder and the volume noted. The poured density was calculated. The measuring cylinder was tapped 100 times and the volume noted. Tapping was repeated to constant volume and the tapped density calculated. The equipment used was a […] Volumeter STA […].

Series [2] in a line: Zeta potential (Zetasizer 3000HS, in cyclohexane). To be noted: average of 10 measurements. On the procedure:
In addition, the powders were studied using the Zetasizer 3000HS instrument (Malvern Instruments Ltd, UK.) Each sample was tested in cyclohexane, and zeta potential measurements were obtained. Zetasizer measures the zeta potential. This is a measure of the electric potential on a particle in suspension in the hydrodynamic plane of shear. The results are summarized as follows: Each result is an average of 10 measurements.

A short description of series [3]: XPS surface analysis of powders. The text has this:
The aim of the analysis is to identify the presence of magnesium stearate on the surface of a model of a co-micronised active agent. […] The aim was to show the contrast in surface coating efficiency. The model material, representing the micronised active agent particles, was micronised lactose.
The powders have been analyzed using both TOF-SIMS and XPS. TOF-SIMS provides a mass spectrum of the outermost 1 nm of the surface, and is used here to asses whether the magnesium stearate coverage of the lactose is complete or in patches. XPS provides a spectrum representative of the outermost 10 nm of the surface of the sample and is used here in comparison to the TOF-SIMS data to assess the depth of coverage of the magnesium stearate on the lactose surface.
XPS is a surface analytical technique that can quantify the amount of different chemical species in the outermost 10 nm of a surface. In the simplest form of analysis, XPS measures the relative amount of each element present. Quantitative elemental identification can be achieved down to 1 atom in 1000. AU elements present can be detected with the exception of hydrogen. Elemental analysis may be essential in determining the amount of a surface contaminant or to quantify any surface species with a unique elemental type.

The mark [4] stands for this setting: single measurements (Measurement 1, Measurement 2).

Regarding Salbutamol sulphate, the “Number of Taps to Constant Volume” value in series [1] (Stampf Volumeter STA V2003) was 200. Moreover, the “Poured Density” value in series [1] (approximately 5 g powder in measuring cylinder) stood at 0.19 g/ml. Moreover, in series [1] (tapped to constant volume), the “Tapped Density” value was determined as 0.24 g/mL.
`OC[C@H]1O[C@@H](O[C@H]2[C@H](O)[C@@H](O)C(O)O[C@@H]2CO)[C@H](O)[C@@H](O)[C@H]1O` (some centres unmarked) [Lactose]: the “Zeta Potential” value in series [2] is given as 35.5 mV. In series [3] (Mean), the “Area % of C 1s Spectral Envelope, C—C” value is 5.5%; the “Area % of C 1s Spectral Envelope, C—O” value is listed as 64.3%; the “Area % of C 1s Spectral Envelope, O—C—O” value amounted to 20.0%; the “Area % of C 1s Spectral Envelope, O—C═O” value was determined as 8.7%. In series [3] (Mean), the “Relative Atomic Percentage Composition, C” value is 54.9%; the “Relative Atomic Percentage Composition, Mg” value is listed as under 0.1%; the “Relative Atomic Percentage Composition, O” value came out at 45.1%. In series [3] (setting [4]), the “Area % of C 1s Spectral Envelope, C—C” value was 6.4% and 4.4%; the “Area % of C 1s Spectral Envelope, C—O” value is 70.9% and 57.8%; the “Area % of C 1s Spectral Envelope, O—C—O” value is 18.0% and 22.0%; the “Area % of C 1s Spectral Envelope, O—C═O” value is 4.7% and 12.8%. Also, in series [3] (setting [4]), the “Relative Atomic Percentage Composition, C” value was 54.47% and 55.29%; the “Relative Atomic Percentage Composition, O” value is 45.43% and 44.71%.
